Experiments:
hERG potassium channel = biological target: T1, hERG potassium channel (Homo sapiens, UniProt Q12809); assay: hERG potassium channel inhibition activity test (Qpatch, CHO-hERG cells); type: cell-based
T1 construct: expressed in transfected cells; host or cells: CHO-hERG cells
Description: 4.1.1 CHO-hERG cells were cultured in a 175 cm2 culture flask. After the cell density reached 60˜80%, the culture solution was removed. The cells were washed with 7 mL of PBS once, and dissociated with 3 mL of Detachin.
4.1.2 After completion of dissociation, the cells were neutralized with 7 mL of culture solution. The solution was centrifuged, and the supernate was removed. The cells were resuspended in 5 mL of culture solution. The cell indensity is ensured as […].
Single cell sealing impedance and formation of whole-cell mode were automatically performed by Qpatch instrument. After obtaining the whole-cell recording mode, the cell was clamped at −80 mV. The cell first underwent pre-voltage of −50 mV for 50 msec, then underwent depolarization stimulation at +40 mV for 5 sec, and then underwent repolarization at −50 mV for 5 sec. and then the voltage returned to −80 mV. The cell underwent the stimulation at the voltage every 15 sec, and the data were recorded for 2 min, then extracellular fluid was administrated, and then the data were recorded for 5 min. Then, the administration process begun. The concentration of the test compound started from the lowest concentration, each test concentration was administrated for 2.5 min. At least three cells were tested for each concentration.
4.4.1 20 mM mother liquor of the compound was diluted with extracellular fluid, 5 uL of 20 mM mother liquor of the compound was added with 2495 uL of extracellular fluid to obtain a concentration of 40 uM (500-fold dilution). The solution was subjected to a 3-fold serial dilution with extracellular fluid containing 0.2% DMSO to obtain a required final concentration.
This concentration of DMSO had no effect on hERG potassium channel.
The experimental data was analyzed by XLFit software.

ERK-1 kinase = biological target: T2, ERK-1 kinase (Homo sapiens, UniProt P27361); assay: Inhibition of ERK-1 kinase activity (LANCE Ultra TR-FRET); type: biochemical; details: ERK1 enzyme 0.4 nM, ATP 38.15 μM
T2 construct: purchased Invitrogen PV3311
T2 sequence (P27361 whole entry): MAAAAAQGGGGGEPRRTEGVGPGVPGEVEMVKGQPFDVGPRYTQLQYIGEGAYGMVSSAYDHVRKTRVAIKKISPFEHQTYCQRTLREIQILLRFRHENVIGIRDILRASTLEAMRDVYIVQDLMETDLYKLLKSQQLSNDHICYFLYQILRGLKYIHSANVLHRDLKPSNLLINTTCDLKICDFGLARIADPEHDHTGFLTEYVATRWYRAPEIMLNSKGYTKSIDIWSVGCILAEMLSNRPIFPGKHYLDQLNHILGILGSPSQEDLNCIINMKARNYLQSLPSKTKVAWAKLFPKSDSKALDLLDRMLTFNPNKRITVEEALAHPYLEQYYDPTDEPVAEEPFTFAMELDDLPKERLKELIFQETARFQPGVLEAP
Description: (§1) The object of this test example is to determine the inhibition effect of the compound on ERK-1 kinase activity. In vitro ERK-1 kinase analysis was carried out by using LANCE Ultra (Perkin Elmer) method. The reaction (reaction system 10 μL) was conducted by adding 2.5 μL of test compound/DMSO (final 4%, V/V, diluted to 10 concentrations (400 nM to 0.02 nM) using a 1:3 dilution scheme), 5 μL of a mixed solution of ERK1 enzyme (Invitrogen, # PV3311, final concentration: 0.4 nM) and substrate Ulight-MBP peptide (Perkin Elmer, # TRF0109-M, final concentration: 0.5 μM) formulated with a kinase buffer (50 mM Hepes pH 7.4, 10 mM MgCl2, 1 mM EGTA, 0.01% Triton X-100, 2 mM DTT) and 2.5 μL of ATP solution (Invitrogen, # PV3227, final concentration: 38.15 μM) formulated with the same buffer successively to a 384-well plate (Perkin Elmer OPTIPLATE™) and mixing well. The reaction mixture was incubated at room temperature for 60 minutes. The reaction was stopped by adding 1× LANCE Detection buffer (PerkinElmer # CR97-100) diluted with ultra-pure water, mM EDTA (Invitrogen #15575038) and 1 nM Eu-anti-p-MBP (PerkinElmer # TRF0201-M) antibody in 10 μL/well. The plate was incubated at room temperature for 60 minutes. Excitation reading was performed on Synergy H1 Hybird Reader, H1MFD (Biotek) with an excitation wavelength of 320 nm. TR-FRET rate was calculated by dividing the acceptor emission signal (signal value at 665 nM) by the Eu donor emission signal (signal value at 615 nM). The inhibition TR-FRET rate of the well treated by the compound was calculated relative to the Max signal (DMSO control) and Min signal (no enzyme added) control wells on the plate {% inhibition rate=100−[(test compound−Min average)]/(Max average−Min average)×100}. The 10 concentrations of the compound after 4-fold dilution of the reaction system were 100 nM to 0.005 nM. Abs_IC50 value was calculated by using GraphPad prism fits percentage inhibition rate and ten-point concentration data in a 4-parameter non-linear logic formula.

ERK-2 kinase = biological target: T3, ERK-2 kinase (Homo sapiens, UniProt P28482); assay: Inhibition of ERK-2 kinase activity (LANCE Ultra TR-FRET); type: biochemical; details: ERK-2 enzyme 0.08 nM, ATP 38.15 μM
T3 construct: purchased Invitrogen PV3313
T3 sequence (P28482 whole entry): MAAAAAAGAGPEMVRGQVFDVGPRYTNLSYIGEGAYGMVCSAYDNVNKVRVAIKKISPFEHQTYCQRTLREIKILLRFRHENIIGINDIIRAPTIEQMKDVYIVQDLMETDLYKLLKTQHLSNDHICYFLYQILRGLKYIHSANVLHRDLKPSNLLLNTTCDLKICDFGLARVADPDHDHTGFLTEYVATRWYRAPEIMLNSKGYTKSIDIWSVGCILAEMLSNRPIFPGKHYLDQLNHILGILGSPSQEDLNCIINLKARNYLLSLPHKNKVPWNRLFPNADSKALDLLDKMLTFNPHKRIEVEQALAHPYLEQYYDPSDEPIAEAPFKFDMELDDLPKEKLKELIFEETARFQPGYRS
Description: as §1, with “ERK-2” for “ERK-1”, “ERK-2” for “ERK1”, “PV3313,” for “PV3311,”, “0.08” for “0.4”, “EGTA” for “EGTA,”, “IX” for “1×”

[1] = system: pancreatic cancer tumor cell Mia Paca 2; assay: Inhibition of tumor cell proliferation (CellTiter-Glo); type: cell-based; details: Homo sapiens, Miapaca-2 cell, 3-7 days
Description: The object of this test example is to determine the inhibition effect of the present compound on tumor cell proliferation activity. The inhibition activity of the compound on tumor cell proliferation was determined by CellTiter-Glo method, and the half inhibitory concentration IC50 of the compound for inhibiting cell proliferation activity was obtained, 50-100 μL of tumor cell suspension was inoculated in a 96-well cell culture plate with a density of 1˜5*10^4 cells/ml. The plate was incubated in an incubator for 16˜24 hours (37° C., 5% CO2). Solutions of test compounds at different concentrations obtained by gradient dilution were added to the cells in the plate. The plate was incubated in an incubator for 3-7 days (37° C., 5% CO2), 50˜100 μL of CellTiter-Glo reagent was added to each well. The plate was shaked for 10 minutes, and left to stand at room temperature for 10 minutes. The value of the chemiluminescence signal was determined by a microplate reader. The inhibition rate was calculated from the value of the chemiluminescence signal. IC50 of the compound was obtained by curve fitting based on the inhibition rate at different concentrations.
The inhibition effect of the present compound on pancreatic cancer tumor cell Mia Paca 2 proliferation activity was determined by the test, and the obtained IC50 value is shown in Table 2.

T1 sequence (Q12809 whole entry): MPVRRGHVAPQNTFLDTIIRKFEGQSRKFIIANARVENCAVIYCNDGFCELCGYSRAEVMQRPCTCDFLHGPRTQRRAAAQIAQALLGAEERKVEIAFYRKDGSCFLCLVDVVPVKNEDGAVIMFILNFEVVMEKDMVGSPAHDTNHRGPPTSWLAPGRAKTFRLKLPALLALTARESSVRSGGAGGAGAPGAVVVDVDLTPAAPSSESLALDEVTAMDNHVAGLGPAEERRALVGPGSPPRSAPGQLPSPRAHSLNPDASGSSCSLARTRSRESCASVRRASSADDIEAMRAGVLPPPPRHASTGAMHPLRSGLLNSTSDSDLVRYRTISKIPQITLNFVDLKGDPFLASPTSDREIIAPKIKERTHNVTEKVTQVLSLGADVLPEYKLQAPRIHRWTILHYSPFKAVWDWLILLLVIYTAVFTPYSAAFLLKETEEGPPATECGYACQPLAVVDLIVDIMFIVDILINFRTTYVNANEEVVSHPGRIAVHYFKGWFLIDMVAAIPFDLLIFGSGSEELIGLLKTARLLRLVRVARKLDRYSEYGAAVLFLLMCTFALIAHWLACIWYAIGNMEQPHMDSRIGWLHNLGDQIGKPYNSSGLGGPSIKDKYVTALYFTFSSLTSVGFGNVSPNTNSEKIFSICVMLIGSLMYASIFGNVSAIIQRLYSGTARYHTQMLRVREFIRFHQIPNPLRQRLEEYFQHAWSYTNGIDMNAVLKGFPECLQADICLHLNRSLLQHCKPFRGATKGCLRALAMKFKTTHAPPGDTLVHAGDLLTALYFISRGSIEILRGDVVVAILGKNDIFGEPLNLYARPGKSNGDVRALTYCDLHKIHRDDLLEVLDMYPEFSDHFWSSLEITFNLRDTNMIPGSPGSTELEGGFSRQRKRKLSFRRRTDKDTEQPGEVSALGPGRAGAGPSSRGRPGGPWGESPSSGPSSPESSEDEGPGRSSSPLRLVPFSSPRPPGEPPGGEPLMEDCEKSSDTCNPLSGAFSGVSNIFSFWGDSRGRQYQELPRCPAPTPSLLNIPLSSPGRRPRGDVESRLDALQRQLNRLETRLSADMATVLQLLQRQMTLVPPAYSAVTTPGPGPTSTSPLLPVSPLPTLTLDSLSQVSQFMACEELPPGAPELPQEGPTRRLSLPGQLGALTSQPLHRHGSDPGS

IC50 (ERK-1 kinase) [nM] | IC50 (ERK-2 kinase) [nM] | IC50 [1] [nM] | Structure (SMILES) | Inhibition effect on cardiac hERG potassium channel (hERG potassium channel) | IC50 (hERG potassium channel; CHO-hERG cells, highest test concentration 40 uM, read-out: hERG (inhibition effect on hERG current)) [nM]
0.19 | 0.12 | 61.6 | Cc1cccc([C@@H](CO)NC(=O)c2nc3cc4c(-c5ccncc5)n[nH]c4cc3[nH]2)c1 [Example 30, (S)—N-(2-hydroxy-1-(m-tolyl)ethyl)-(pyridin-4-yl)-1,7-dihydroimidazo[4,5-f]indazole-6-carboxamide] | – | –
0.26 | 0.17 | 99.4 | C[C@@H](NC(=O)c1nc2cc3c(-c4ccncc4)n[nH]c3cc2[nH]1)c1cccc(Cl)c1 [Example 22, (R)—N-(1-(3-chlorophenyl)ethyl)-3-(pyridin-4-yl)-1,7-dihydroimidazo[4,5-f]indazole-6-carboxamide] | – | –

The remaining lines, values behind:

Structure (SMILES) | IC50 (ERK-1 kinase) [nM] | IC50 (ERK-2 kinase) [nM] | IC50 [1] [nM] | Inhibition effect on cardiac hERG potassium channel (hERG potassium channel) | IC50 (hERG potassium channel; CHO-hERG cells, highest test concentration 40 uM, read-out: hERG (inhibition effect on hERG current)) [nM]
O=C(Cc1ccccc1)c1nc2cc3c(-c4ccncc4)n[nH]c3cc2[nH]1 [Example 105, 2-phenyl-1-(3-(pyridin-4-yl)-1,7-dihydroimidazo[4,5-f]indazol-6-yl)ethan-1-one] | – | – | – | no inhibition effect | > 40000
C[C@@H](NC(=O)c1nc2cc3c(-c4ccncc4)n[nH]c3cc2[nH]1)c1cccc(F)c1 [Example 45, (R)—N-(1-(3-fluorophenyl)ethyl)-3-(pyridin-4-yl)-1,7-dihydroimidazo[4,5-f]indazole-6-carboxamide] | 0.54 | 0.5 | 110 | – | –
COc1cccc([C@@H](C)NC(=O)c2nc3cc4c(-c5ccncc5)n[nH]c4cc3[nH]2)c1 [Example 19, (R)—N-(1-(3-methoxyphenyl)ethyl)-3-(pyridin-4-yl)-1,7-dihydroimidazo[4,5-f]indazole-6-carboxamide] | 0.35 | 0.2 | 159 | – | –
C[C@@H](NC(=O)c1nc2cc3c(-c4ccncc4)n[nH]c3cc2[nH]1)c1cccc(Br)c1 [Example 18, (R)—N-(1-(3-bromophenyl)ethyl)-3-(pyridin-4-yl)-1,7-dihydroimidazo[4,5-f]indazole-6-carboxamide] | 0.45 | 0.51 | 110 | – | –
